Data from the supplement of paper PMC11451515.

What was measured:
Conditions in all cases: 48 h
SEM cells [1] = assay: cell viability relative to DMSO control; higher = less cytotoxic
Method in brief: (§1)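 Three leukemia lines were tested: NOMO1 and SEM at 500 cells/well and P12-Ichikawa at 1000 cells/well. Each was adapted for at least four passages in each medium and seeded in 5 μl in 1536-well plates, and library compounds in DMSO were pin-dosed from 47 μM to 0.79 nM in 11 threefold steps. After 48 h at 37°C, CellTiter-Glo One luminescence was read. Viability is a percentage relative to DMSO wells on each plate, with cell-free wells as background.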

NOMO1 [2] = assay: AUC of viability dose-response curve (% viability x log10 dose units); higher = less sensitive
Method in brief: (§2)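 Library compounds in DMSO were applied for 48 h at 37°C at 11 threefold doses (47 μM to 0.79 nM) to medium-adapted leukemia cells in 1536-well plates holding 500 or 1000 cells/well. Luminescence from CellTiter-Glo One was normalised plate by plate against DMSO and cell-free wells. Area under the curve came from trapezoidal integration of a log-logistic fit, after scaling curves that rose above full viability and discarding those that failed quality control. The fit had four parameters and used log10 doses.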

P12-Ichikawa [3] = assay: as above
Method in brief: as §2

SEM cells [4] = assay: as above
Method in brief: as §2

NOMO1 [5] = assay: cell viability relative to DMSO control; higher = less cytotoxic
Method in brief: as §1

P12-Ichikawa [6] = assay: as above
Method in brief: as §1

CC1Cc2ccccc2N1NC(=O)c1ccc(Cl)c([S+](N)(=O)[O-])c1 (configuration not stated)
cell viability [%], SEM cells [1]
Conditions | HPLM + 10% dialyzed FBS | RPMI 5 mM glucose + 10% dialyzed FBS
0.000781 µM | 111 | 107
0.00234 µM | 108 | 109
0.00702 µM | 104 | 117
0.0211 µM | 106 | 106
0.0632 µM | 94.3 | 102
0.19 µM | 113 | 134
0.569 µM | 128 | 100
1.71 µM | 103 | 97
5.12 µM | 112 | 113
15.4 µM | 116 | 111
46.1 µM | 97.9 | 107

AUC of viability dose-response curve
Conditions | NOMO1 [2] | P12-Ichikawa [3] | SEM cells [4]
HPLM + 10% dialyzed FBS | 467 | 463 | 474
RPMI 5 mM glucose + 10% FBS | 445 | 473 | 426
RPMI 5 mM glucose + 10% dialyzed FBS | 434 | 452 | 472

COc1cc2c(cc1O)CCC1C2CC[C@@]2(C)C1CC[C@@H]2O (some centres not stated)
cell viability [%]
Conditions | NOMO1 [5] | P12-Ichikawa [6] | SEM cells [1]
HPLM + 10% dialyzed FBS, 0.000781 µM | – | 116 | 88.7
HPLM + 10% dialyzed FBS, 0.00234 µM | – | 120 | 114
HPLM + 10% dialyzed FBS, 0.00702 µM | – | 118 | 98.4
HPLM + 10% dialyzed FBS, 0.0211 µM | – | 89.9 | 25.9
HPLM + 10% dialyzed FBS, 0.0632 µM | – | 120 | 108
HPLM + 10% dialyzed FBS, 0.19 µM | – | 112 | 113
HPLM + 10% dialyzed FBS, 0.569 µM | – | 114 | 95.8
HPLM + 10% dialyzed FBS, 1.71 µM | – | 65.1 | 73.2
HPLM + 10% dialyzed FBS, 5.12 µM | – | 31.8 | 40.7
HPLM + 10% dialyzed FBS, 15.4 µM | – | 17.9 | 31.4
HPLM + 10% dialyzed FBS, 46.1 µM | – | 15.8 | 26.2
RPMI 5 mM glucose + 10% FBS, 0.000781 µM | 117 | – | 120
RPMI 5 mM glucose + 10% FBS, 0.00234 µM | 111 | – | 108
RPMI 5 mM glucose + 10% FBS, 0.00702 µM | 103 | – | 129
RPMI 5 mM glucose + 10% FBS, 0.0211 µM | 110 | – | 22
RPMI 5 mM glucose + 10% FBS, 0.0632 µM | 121 | – | 124
RPMI 5 mM glucose + 10% FBS, 0.19 µM | 120 | – | 125
RPMI 5 mM glucose + 10% FBS, 0.569 µM | 111 | – | 107
RPMI 5 mM glucose + 10% FBS, 1.71 µM | 101 | – | 84.2
RPMI 5 mM glucose + 10% FBS, 5.12 µM | 84.2 | – | 49.1
RPMI 5 mM glucose + 10% FBS, 15.4 µM | 25.1 | – | 23.5
RPMI 5 mM glucose + 10% FBS, 46.1 µM | 32.6 | – | 21.7
RPMI 5 mM glucose + 10% dialyzed FBS, 0.000781 µM | 118 | 120 | 116
RPMI 5 mM glucose + 10% dialyzed FBS, 0.00234 µM | 129 | 125 | 118
RPMI 5 mM glucose + 10% dialyzed FBS, 0.00702 µM | 117 | 115 | 126
RPMI 5 mM glucose + 10% dialyzed FBS, 0.0211 µM | 116 | 114 | 24.6
RPMI 5 mM glucose + 10% dialyzed FBS, 0.0632 µM | 121 | 126 | 118
RPMI 5 mM glucose + 10% dialyzed FBS, 0.19 µM | 115 | 120 | 123
RPMI 5 mM glucose + 10% dialyzed FBS, 0.569 µM | 119 | 115 | 108
RPMI 5 mM glucose + 10% dialyzed FBS, 1.71 µM | 115 | 96.3 | 88.7
RPMI 5 mM glucose + 10% dialyzed FBS, 5.12 µM | 63.8 | 47 | 40.2
RPMI 5 mM glucose + 10% dialyzed FBS, 15.4 µM | 33.9 | 27.8 | 26.5
RPMI 5 mM glucose + 10% dialyzed FBS, 46.1 µM | 40.4 | 26.2 | 28.2

AUC of viability dose-response curve
Conditions | HPLM + 10% dialyzed FBS | RPMI 5 mM glucose + 10% FBS | RPMI 5 mM glucose + 10% dialyzed FBS
NOMO1 [2] | 390 | 412 | 404
P12-Ichikawa [3] | 359 | 368 | 382

O=C1NC(=O)/C(=C/c2ccc3c(c2)OC(F)(F)O3)S1
AUC of viability dose-response curve
Conditions | NOMO1 [2] | P12-Ichikawa [3] | SEM cells [4]
HPLM + 10% dialyzed FBS | 465 | 462 | 464
RPMI 5 mM glucose + 10% FBS | 446 | 463 | 466
RPMI 5 mM glucose + 10% dialyzed FBS | 457 | 440 | 466

CN(C)CC(=O)N1CCC(CC1)C2=CC=C(NC(=O)C3=NC(=C[NH]3)C#N)C(=C2)\C4=C\CCCC4
AUC of viability dose-response curve
Conditions | NOMO1 [2] | P12-Ichikawa [3] | SEM cells [4]
HPLM + 10% dialyzed FBS | 458 | 467 | 359
RPMI 5 mM glucose + 10% FBS | 454 | 463 | 358
RPMI 5 mM glucose + 10% dialyzed FBS | 456 | 443 | 348
